Results from the supplement of paper PMC11451515.

Experiments:
Conditions in all cases: 48 h
[1] = tested on: NOMO1; test: AUC of viability dose-response curve (% viability x log10 dose units); higher = less sensitive
How it was run: (§1)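 Leukemia cells adapted to each medium were seeded in 1536-well plates (500 or 1000 cells/well). They were dosed with library compounds in DMSO at 11 threefold doses, 47 μM to 0.79 nM, for 48 h at 37°C. CellTiter-Glo One luminescence was normalised per plate to DMSO and cell-free wells. Area under the curve was integrated by trapezoidal rule over log10 doses on a four-parameter log-logistic fit; curves exceeding full viability were scaled and curves failing quality control removed.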

[2] = tested on: P12-Ichikawa; test: as above
How it was run: as §1

[3] = tested on: SEM cells; test: as above
How it was run: as §1

[4] = tested on: NOMO1; test: cell viability relative to DMSO control; higher = less cytotoxic
How it was run: (§2)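 Three leukemia lines were tested: NOMO1 and SEM at 500 cells/well and P12-Ichikawa at 1000 cells/well. Each was adapted for at least four passages in each medium and seeded in 5 μl in 1536-well plates, and library compounds in DMSO were pin-dosed from 47 μM to 0.79 nM in 11 threefold steps. After 48 h at 37°C, CellTiter-Glo One luminescence was read. Viability is a percentage relative to DMSO wells on each plate, with cell-free wells as background.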

[5] = tested on: P12-Ichikawa; test: as above
How it was run: as §2

[6] = tested on: SEM cells; test: as above
How it was run: as §2

COc1ccc2c(c1OC)CN1CCc3cc4c(cc3C1C2)OCO4 (stereo not drawn)
AUC of viability dose-response curve
Conditions	[1]	[2]	[3]
HPLM + 10% dialyzed FBS	322	356	288
RPMI 5 mM glucose + 10% FBS	330	316	263
RPMI 5 mM glucose + 10% dialyzed FBS	331	311	271

cell viability [%]
Conditions	[4]	[5]	[6]
HPLM + 10% dialyzed FBS, 0.000781 µM	86.4	94.5	85.3
HPLM + 10% dialyzed FBS, 0.00234 µM	82.4	96.2	80.1
HPLM + 10% dialyzed FBS, 0.00702 µM	98.4	101	86.5
HPLM + 10% dialyzed FBS, 0.0211 µM	99.3	104	104
HPLM + 10% dialyzed FBS, 0.0632 µM	109	101	87.4
HPLM + 10% dialyzed FBS, 0.19 µM	82.5	99.8	64.3
HPLM + 10% dialyzed FBS, 0.569 µM	96.7	97.2	72.8
HPLM + 10% dialyzed FBS, 1.71 µM	44.7	77	41.3
HPLM + 10% dialyzed FBS, 5.12 µM	14.9	15.9	13
HPLM + 10% dialyzed FBS, 15.4 µM	6.67	6.51	8.04
HPLM + 10% dialyzed FBS, 46.1 µM	5.61	6.63	7.89
RPMI 5 mM glucose + 10% FBS, 0.000781 µM	106	86.1	92.5
RPMI 5 mM glucose + 10% FBS, 0.00234 µM	92.4	87	93.6
RPMI 5 mM glucose + 10% FBS, 0.00702 µM	89.2	92.7	87
RPMI 5 mM glucose + 10% FBS, 0.0211 µM	98.8	93.9	93.6
RPMI 5 mM glucose + 10% FBS, 0.0632 µM	98.4	94	84.3
RPMI 5 mM glucose + 10% FBS, 0.19 µM	89.9	89	45.6
RPMI 5 mM glucose + 10% FBS, 0.569 µM	100	86.7	59.8
RPMI 5 mM glucose + 10% FBS, 1.71 µM	42.6	53.6	20.2
RPMI 5 mM glucose + 10% FBS, 5.12 µM	16	17.7	9.42
RPMI 5 mM glucose + 10% FBS, 15.4 µM	6.1	5.68	7.3
RPMI 5 mM glucose + 10% FBS, 46.1 µM	5.21	4.82	6.85
RPMI 5 mM glucose + 10% dialyzed FBS, 0.000781 µM	88	84.8	79.6
RPMI 5 mM glucose + 10% dialyzed FBS, 0.00234 µM	92.7	87.7	83.1
RPMI 5 mM glucose + 10% dialyzed FBS, 0.00702 µM	93.3	92.6	96.7
RPMI 5 mM glucose + 10% dialyzed FBS, 0.0211 µM	103	94.4	90.8
RPMI 5 mM glucose + 10% dialyzed FBS, 0.0632 µM	102	92.5	99
RPMI 5 mM glucose + 10% dialyzed FBS, 0.19 µM	92.2	83.2	55
RPMI 5 mM glucose + 10% dialyzed FBS, 0.569 µM	92.9	83.5	56.5
RPMI 5 mM glucose + 10% dialyzed FBS, 1.71 µM	49.3	52.9	28.8
RPMI 5 mM glucose + 10% dialyzed FBS, 5.12 µM	20.5	13.4	11.3
RPMI 5 mM glucose + 10% dialyzed FBS, 15.4 µM	5.52	7.72	8.19
RPMI 5 mM glucose + 10% dialyzed FBS, 46.1 µM	4.95	6.88	8.01
